Drawing on US4511509A, “3-Alkylidine azetidine compound and their production” (Kowa Co. Ltd., priority 1982, dated 1985), this text covers MIC for one compound.

Structures are written as SMILES. Converted amounts (≈) assume the structure as drawn.

What all share (test): antibacterial activity, MIC (Table)
Format in all cases: cell-based

The subject of experiment [1] is Streptococcus aureus 209p JC-1.
Experiment [2] deals with Streptococcus aureus Smith.
Experiment [3] concerns Bacillus subtilis ATCC 6633. As to conditions: ATCC6633.
In experiment [4] the test system is Escherichia coli NIHJ JC-2. As to conditions: NIHJJC2.
Experiment [5] concerns Klebsiella pneumoniae PCO 602. The settings on record: PCO602.
Experiment [6] has as its system Serratia marcescens NHL.
Experiment [7] concerns Proteus inconstans 93. The settings on record: Providencia alcalifaciens.
In experiment [8] the test system is Proteus vulgaris IID874.
Experiment [9] relates to Salmonella typhi H - 901. The settings on record: Salmonella enterica.
For experiment [10], the system named is Pseudomonas aeruginosa NCTC 10490. As to conditions: NCTC10490.
The subject of experiment [11] is Pseudomonas putida IID 5121. The settings on record: IID5121.
The test system of experiment [12] is Escherichia coli RECl (PC ase I).
Experiment [13] deals with Escherichia coli 59 (PC ase II).
Experiment [14] relates to Escherichia coli 68 (PC ase IV).
The test system of experiment [15] is Proteus inconstans 113. As to conditions: Providencia alcalifaciens.

Take `C/C(CO)=C1\C(=O)N2C(C(=O)O)=C(Sc3ncccn3)C[C@H]12` [(5R)6(E)-(1-methyl-2-hydroxyethylidene)-3-(2-pyrimidinylthio)-1-azabicyclo[3.2.0]hept-2-en-7-one-2-carboxylic acid]: the MIC in [1] worked out at 0.05 µg/mL (≈ 0.157 µM); in experiment [2], 0.2 µg/mL (≈ 0.626 µM); in experiment [3], 0.78 µg/mL (≈ 2.44 µM); in experiment [4] it was 0.39 µg/mL (≈ 1.22 µM); in experiment [5], 0.39 µg/mL (≈ 1.22 µM); in experiment [6] it was 0.78 µg/mL (≈ 2.44 µM). The MIC in experiment [7] came to 0.2 µg/mL (≈ 0.626 µM); in experiment [8] it was 0.05 µg/mL (≈ 0.157 µM); in [9], 0.2 µg/mL (≈ 0.626 µM); in [10], 1.56 µg/mL (≈ 4.89 µM); in [11] it was 100 µg/mL (≈ 313 µM); in experiment [12] it was 0.39 µg/mL (≈ 1.22 µM). Also, the MIC in experiment [13] stood at 0.2 µg/mL (≈ 0.626 µM); in experiment [14], 0.2 µg/mL (≈ 0.626 µM); in experiment [15] it was 0.78 µg/mL (≈ 2.44 µM).

What is called MIC is the lowest concentration that inhibits growth of the organism. A high value points to a need for much substance.
